# How the values were obtained:
# Format in all cases: physicochemical
# [1] = Dynamic Vapor Sorption (DVS) analysis; conditions: for weight gained in DVS analysis: between 0-90% relative humidity, 25° C.
# Description: Dynamic Vapor Sorption (DVS). DVS experiments were conducted on a Surface Measurement Systems DVS-HT at 25° C. The instrument was operated in step mode and the relative humidity was increased in 10% RH increments from 40% RH to 90% RH, then decreased from 90% RH to 0% RH, then increased from 0% RH to 90% RH, then decreased from 90% RH to 0% RH. An extra step at 75% RH was included in each cycle. The mass equilibrium criterion was set at 0.005% change in mass over time (dm/dt) prior to each humidity level. A minimum step time of 10 minutes and a maximum step time of 240 minutes were specified.
# [2] = Physical (crystal form) stability on exposure to ambient conditions, relative humidity or elevated pressure; conditions: for crystal form change on exposure to 75% relative humidity: 75% relative humidity for five days; for crystal form change on exposure to 97% relative humidity: 97% relative humidity for 5 days
# Excerpt: (§1) Form 1 is a non-solvated, non-hygroscopic crystal.
# Form 3 is a non-solvated and non-hygroscopic crystal.
# Form 4 is a non-solvated crystal.
# [3] = Milling at -196° C. and recrystallization
# Excerpt: as §1
# [4] = Stability of Form 1 to physical and chemical manipulation (Example 3)
# Description: Form 1 is stable to lyophilization when initially dissolved in a 50:50 mixture of DMC:ACN.
# A saturated solution of Form 1 in any of MeOH, ACN, acetone, DCM, TFE, or 1,4-dioxane is stable to evaporation over 3.5 hours at 30° C. under reduced pressure.
# A saturated solution of Form 1 in any of MeOH, THF, MeOAc, Toluene, or EtOH in 1 vol % Heptane is stable after heating to 50° C., filtering the solution and rapidly cooling to 5° C.
# A suspension of Form 1 in any of DMSO, n-BuOH, 2-Methoxyethanol, IPA, EtOH, Nitromethane, DMC, n-PrOH, ACN, Acetone, 2-Butanone, EtOAc, THF, EtOH in 5 vol % Toluene, MeOAc, or EtOH in 5 vol % MeOH is stable after cycling temperature between 5 and 40° C. for >48 hrs with constant stirring.
# Form 1 was also stable to exposure to 75% relative humidity or to high pressure (10 kPSi).
# A saturated solution of Form 1 in any of n-PrOH, ACN, Acetone, 2-Butanone, EtOAc, THF, EtOH in 5 vol % Toluene, MeOAc, or EtOH in 5 vol % MeOH at 25° C., is stable after filtering the solution and then cooling the solution to 5° C. at a rate of 1° C./min.
# A saturated solution of Form 1 in any of TFE, 2-Methoxyethanol, IPA, EtOH, Heptane, 4-Methyl-2-pentanone, cyclohexane, ACN, Acetone, 2-Butanone, EtOAc, THF, or EtOH in 5 vol % Toluene is stable to evaporation over 2-28 days under ambient conditions.
Structure (SMILES),hygroscopicity of the crystal [1],weight gained in DVS analysis [1],crystal form change on exposure to 75% relative humidity [2],crystal form change on exposure to 97% relative humidity [2],"physical stability at ambient conditions ([2]; ambient conditions, no duration stated)",crystal form change on exposure to elevated pressures ([2]; elevated pressures (~0.35 GPa) for 3 days),time to recrystallize back to Form 1 after milling ([3]; after becoming amorphous by milling at -196° C. for 2.5 hours),solid form after milling ([3]; milled at -196° C. for 2.5 hours),crystal form stability to exposure to water vapor ([4]; 75% relative humidity),crystal form stability to pressing ([4]; high pressure (10 kPSi)),crystal form stability to lyophilization ([4]; initially dissolved in a 50:50 mixture of DMC:ACN),"crystal form stability to controlled cooling ([4]; saturated solution at 25° C. in any of n-PrOH, ACN, Acetone, 2-Butanone, EtOAc, THF, EtOH in 5 vol % Toluene, MeOAc, EtOH in 5 vol % MeOH, filtered, cooled to 5° C. at 1° C./min)","crystal form stability to fast evaporation ([4]; saturated solution in any of MeOH, ACN, acetone, DCM, TFE or 1,4-dioxane, evaporation over 3.5 hours at 30° C. under reduced pressure)","crystal form stability to rapid cooling ([4]; saturated solution in any of MeOH, THF, MeOAc, Toluene or EtOH in 1 vol % Heptane, heated to 50° C., filtered, rapidly cooled to 5° C.)","crystal form stability to slow evaporation ([4]; saturated solution in any of TFE, 2-Methoxyethanol, IPA, EtOH, Heptane, 4-Methyl-2-pentanone, cyclohexane, ACN, Acetone, 2-Butanone, EtOAc, THF, EtOH in 5 vol % Toluene, evaporation over 2-28 days under ambient conditions)","crystal form stability to slurry equilibration ([4]; suspension in any of DMSO, n-BuOH, 2-Methoxyethanol, IPA, EtOH, Nitromethane, DMC, n-PrOH, ACN, Acetone, 2-Butanone, EtOAc, THF, EtOH in 5 vol % Toluene, MeOAc, EtOH in 5 vol % MeOH, cycling 5-40° C. for >48 hrs with stirring)",time physically stable at ambient conditions ([2]; ambient conditions)
"[2H]C([2H])([2H])C(c1cc2nnc(-c3cc(F)ccc3F)n2nc1OCc1ncnn1C)(C([2H])([2H])[2H])C([2H])([2H])[2H] [Form 1, 7-(tert-Butyl-d9)-3-(2,5-difluorophenyl)-6-((1-methyl-1H-1,2,4-triazol-5-yl)methoxy)-[1,2,4]triazolo[4,3-b]pyridazine]",non-hygroscopic,< 0.25 % wt,does not undergo a crystal form change,partially converts to Form 2,physically stable,does not undergo a crystal form change,≤ 30 min,becomes amorphous,stable,stable,stable,stable,stable,stable,stable,stable,
"[2H]C([2H])([2H])C(c1cc2nnc(-c3cc(F)ccc3F)n2nc1OCc1ncnn1C)(C([2H])([2H])[2H])C([2H])([2H])[2H] [Form 3, 7-(tert-Butyl-d9)-3-(2,5-difluorophenyl)-6-((1-methyl-1H-1,2,4-triazol-5-yl)methoxy)-[1,2,4]triazolo[4,3-b]pyridazine]",non-hygroscopic,< 0.25 % wt,,does not undergo a crystal form change,,,,,,,,,,,,,at least 2 weeks
"[2H]C([2H])([2H])C(c1cc2nnc(-c3cc(F)ccc3F)n2nc1OCc1ncnn1C)(C([2H])([2H])[2H])C([2H])([2H])[2H] [Form 4, 7-(tert-Butyl-d9)-3-(2,5-difluorophenyl)-6-((1-methyl-1H-1,2,4-triazol-5-yl)methoxy)-[1,2,4]triazolo[4,3-b]pyridazine]",,,does not undergo a crystal form change,,,,,,,,,,,,,,at least 2 weeks

# — patent publication US20150158870A1, “POLYMORPHS OF 7-(TERT-BUTYL-D9)-3-(2,5-DIFLUOROPHENYL)-6-((1-METHYL-1H-1,2,4-TRIAZOL-5-YL)METHOXY)-[1,2,4]TRIAZOLO[4,3-B]PYRIDAZINE” (Concert Pharmaceuticals Inc., priority 2012, published 2015)
